Data set [1] has as its target T1, NMDAR2A (Homo sapiens, UniProt Q12879).
T1 construct: expressed in transfected cells; host or cells: HEK cells (membrane extract)
The data set is described as follows: NMDAR agonist assay, [3H]MK-801 binding, NMDAR2A expressing HEK cell membranes. It counts as biochemical. As to conditions: 50 μM glutamate. In outline:
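Membranes from HEK cells (300 μg protein) preincubated 15 min with 50 μM glutamate plus compound (1×10^−15–1×10^−7 M) or 1 mM glycine, then with 0.3 μCi [3H]MK-801 for 15 min at 25° C. (nonequilibrium); filter-bound DPM, baseline-subtracted, expressed as % of 1 mM glycine; EC50 and % maximum from three-parameter fit.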

Data set [2] is described as follows: IV pharmacokinetics in Sprague Dawley rats. In kind it is in vivo. Conditions: Sprague-Dawley, rat, in vivo, iv, 2 mg/kg, normal saline. Here is the method:
Sprague Dawley rats were dosed intravenously using a normal saline formulation containing 2 mg/kg of the compounds identified in the below table. The table below summarizes the results of the IV pharmacokinetics.

Bounds are passed on as bounds.

T1 sequence (Q12879 23-1464, species assumed, other chains not shown): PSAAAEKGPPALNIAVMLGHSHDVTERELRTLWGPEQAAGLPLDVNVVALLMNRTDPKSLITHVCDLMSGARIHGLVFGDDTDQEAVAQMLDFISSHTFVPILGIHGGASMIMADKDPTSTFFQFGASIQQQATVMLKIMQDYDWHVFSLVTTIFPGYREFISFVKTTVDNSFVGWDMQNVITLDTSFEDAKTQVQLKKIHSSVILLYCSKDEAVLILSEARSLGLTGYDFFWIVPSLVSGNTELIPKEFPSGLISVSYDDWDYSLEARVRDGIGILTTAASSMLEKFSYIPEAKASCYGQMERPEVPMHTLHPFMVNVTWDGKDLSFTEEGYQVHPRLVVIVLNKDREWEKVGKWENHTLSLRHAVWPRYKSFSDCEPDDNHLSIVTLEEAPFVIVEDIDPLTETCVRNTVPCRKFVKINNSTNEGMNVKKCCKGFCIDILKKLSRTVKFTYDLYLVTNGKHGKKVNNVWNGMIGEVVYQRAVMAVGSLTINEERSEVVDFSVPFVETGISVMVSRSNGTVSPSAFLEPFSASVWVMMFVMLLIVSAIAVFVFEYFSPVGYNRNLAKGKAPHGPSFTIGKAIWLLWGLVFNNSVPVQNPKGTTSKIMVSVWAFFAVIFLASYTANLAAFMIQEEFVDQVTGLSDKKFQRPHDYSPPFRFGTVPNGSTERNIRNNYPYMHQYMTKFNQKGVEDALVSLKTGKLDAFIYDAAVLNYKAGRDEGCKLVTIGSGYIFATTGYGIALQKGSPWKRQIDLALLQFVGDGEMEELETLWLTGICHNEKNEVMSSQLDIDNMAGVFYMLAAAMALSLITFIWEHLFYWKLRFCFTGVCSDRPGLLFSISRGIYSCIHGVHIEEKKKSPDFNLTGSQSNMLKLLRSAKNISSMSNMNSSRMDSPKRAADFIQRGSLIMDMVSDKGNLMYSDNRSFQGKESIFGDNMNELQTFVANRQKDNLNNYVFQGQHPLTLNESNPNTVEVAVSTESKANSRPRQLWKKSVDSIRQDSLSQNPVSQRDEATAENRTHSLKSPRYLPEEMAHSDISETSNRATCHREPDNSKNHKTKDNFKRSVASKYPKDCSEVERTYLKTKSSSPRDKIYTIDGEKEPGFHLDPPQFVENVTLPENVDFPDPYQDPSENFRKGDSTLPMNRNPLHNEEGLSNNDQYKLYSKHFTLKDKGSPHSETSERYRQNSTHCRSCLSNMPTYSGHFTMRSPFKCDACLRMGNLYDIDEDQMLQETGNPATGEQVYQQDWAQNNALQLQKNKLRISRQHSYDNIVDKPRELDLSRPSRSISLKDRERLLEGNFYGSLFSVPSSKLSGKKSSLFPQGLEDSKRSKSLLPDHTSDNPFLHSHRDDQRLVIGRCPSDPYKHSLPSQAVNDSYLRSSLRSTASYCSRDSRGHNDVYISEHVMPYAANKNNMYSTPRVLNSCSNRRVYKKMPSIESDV

By EC50 is commonly meant the midpoint of the concentration-response curve. Usually AUC(0-t) stands for the area under the concentration-time curve up to a stated or last time point. By clearance is commonly meant a measure of how efficiently the substance is removed, as volume per time. For orientation: half-life means the time needed for the level to fall by half in the phase considered. The term Cmax denotes the maximum level reached in the sampled fluid or tissue. As to `O=C1NCC=CC[C@]12CCCN2` [GA, (R)-1,7-diazaspiro[4.6]undec-9-en-6-one], the EC50 in data set [1] (read-out: NMDAR2A B: log EC50 (converted)) is no less than 1 nM. Also, in data set [1] (0.25 h, relative to 1 mM glycine, read-out: NMDAR2A A: % maximal [3H]MK-801 binding relative to 1 mM glycine), the Emax is less than 100%. In data set [2], this compound showed an area under the curve AUC(0-t) of 1250 ng·h/mL, a clearance of 27 mL/min/kg and a half-life of 3.6 h. The Cmax in data set [2] (read-out: Cmax) worked out at 1470 ng/mL. In data set [2] (read-out: Vss), the Vd was found to be 3.92 L/kg.

The record behind these values is US20210047324A1 (Aptinyx Inc., priority 2018, published 2021).
